Data: patent publication US8367835B2, “Cyclic amine-1-carboxylic acid ester derivative and pharmaceutical composition containing the same” (Dainippon Sumitomo Pharma Co., Ltd., priority 2008, dated 2013)
Read-outs that look alike come from different tables or passages of the source.

Key:
[1] = test system: mechanical hyperalgesia in a neuropathic pain model (rat Chung model); assay: Analgesic effect: von Frey filament test using rat Chung model, transdermal administration; format: in vivo; settings: 0.1% formulation applied transdermally to plantar surface of left hindlimb once a day for 2 weeks; measured on the day after last administration; pre-administration value = 100%
Experimental: The present test is to measure the analgesic effect based on the improvement level of the mechanical hyperalgesia in a neuropathic pain model as the indicator by transdermally administering the compound of the present invention and was carried out in accordance with the method of Kim and Chung [Pain, 50, 355-363 (1992)] or the method of Tsuda et al. [Nature, 424, 778-783, 2003].
Specifically, using Jcl: Wistar male rat (7 to 9 rats/group, 5 weeks of age at the time of surgery), spinal nerves were injured to induce hyperalgesia and the withdrawal threshold was measured using the von Frey filament. In the surgery, under Pentobarbital anesthesia, the left L5 spinal nerve was exposed, ligated near the spinal cord using a silk suture (5-0) and transected just peripheral to the ligation. After suturing the incision and keeping the rats for 2 weeks, the rats were subjected to the von Frey filament test. The measurement of the mechanical hyperalgesia was carried out by applying von Frey filaments (1.0, 2.0, 4.0, 8.0, 15.0 g) to the plantar surface of the left hindlimb, and the filament intensity at which 50% or higher withdrawal behavior was observed was defined as the withdrawal threshold.
After dissolving the test compounds in a mixture of Tween 80 and ethanol, the obtained solution was mixed with a hydrophilic ointment to prepare a formulation having a concentration of 0.1%. The withdrawal threshold before administering the test compound was measured to define the pre-administration value (100%). Thereafter, once a day, for 2 weeks, the formulation having a concentration of 0.1% was transdermally administered (applied) to the plantar surface of the left hindlimb, the von Frey filament test was carried out on the following day of the last administration to measure the post-administration value. Further, the same formulation as above but free of the test compound was prepared as a vehicle control and the same test was carried out.
The analgesic effect is a relative ratio when a test compound pre-administration value calculated using the following numerical formula is 100%. The pre-administration withdrawal threshold was 3.3±0.1 g (119 cases) (the withdrawal threshold of sham-operated rat was 10 to 15 g). %=(test compound post-administration withdrawal threshold value/pre-administration withdrawal threshold value)×100

TRPV1 = biological target: T1, TRPV1 (Rattus norvegicus, UniProt O35433); assay: TRPV1 agonist activity by intracellular calcium level (FLIPR method); format: cell-based; settings: rat dorsal root ganglion primary culture cells
T1 construct: using cultured rat dorsal root ganglion cells which express TRPV1 abundantly; endogenous in cells; host or cells: primary culture of dorsal root ganglion cells from 7 day old Wistar rat
Excerpt: The test is to measure the elevation of intracellular calcium level as the indicator of TRPV1 agonist activity of a test compound using cultured rat dorsal root ganglion cells which express TRPV1 abundantly, and carried out in accordance with the method of Jerman et al. (Jerman, J. C. et al., Comparison of effects of anandamide at recombinant and endogenous rat vanilloid receptors. Br J Anaesth, 2002. 89(6): p. 882-7). More specifically, the dorsal root ganglion was removed from a 7 day old Wistar rat, and the cells were isolated by collagenase-trypsin treatment. Subsequently, the primary cells was cultured in a CO2 incubator controlled at 5% CO2 and 37° C. for 2 days. The culture medium used was Neurobasal™ medium supplemented with L-glutamine, nerve growth factor, N-2-Supplement, Penicillin-Streptomycin, 5-Fluoro-2′-deoxyuridine (culture day 1 only) were added to.
FLIPR^TETRA system (Molecular Devices Corp.) was used to measure the intracellular calcium concentration. As an indicator of TRPV1 agonistic activity, the fluorescence intensity elevation was monitored when a test compound is applied to the rat dorsal root ganglion primary culture cells loaded with a calcium-sensitive fluorescent reagent.

[2] = test system: mechanical hyperalgesia in a neuropathic pain model (rat Chung model); assay: Analgesic effect in combination with Pregabalin: von Frey filament test using rat Chung model, i.pl. administration; format: in vivo; settings: for % to pre-administration value: (1) Test compound post-i. pl. administration value: 50 μl of 0.1% (W/V) solution intraplantar to left hindlimb, measured on the following day, test compound alone; for % to pre-administration value: (2) Pregabalin post-oral administration value (Test compound administered on the day before): test compound i.pl. the day before plus Pregabalin 10 mg/kg orally, combined effect
Experimental: The study was conducted using the same methods and evaluation criteria as in Test Example 1 with the exception of the administration route of the test compounds (see Test Example 1).
Using the von Frey filaments the test compound pre-administration values (pressure withdrawal threshold) were measured. Subsequently, 50 μl of a solution containing a test compound or vehicle control was intraplantarly injected to the left hindlimb using a microsyringe (intraplantar injection: i. pl. administration), and on the following day the withdrawal threshold was measured (effect of the test compound alone). Thereafter, 10 mg/kg of Pregabalin was orally administered and an hour later the withdrawal threshold was measured (combined effect).
Pregabalin was dissolved in distilled water. Physiological saline containing Tween 80 and ethanol was used as the vehicle control for the i. pl. administration.
The analgesic effect is a relative ratio when a pre-administration value calculated using the following numerical formula is 100%.

[3] = test system: eye of a Std: ddy male mouse; assay: Pungency: eye-wiping test; format: in vivo; settings: 10 μg/ml, one drop to mouse eye, counted every minute up to 5 minutes
Experimental: The test is to examine the pungency of the compound of the present invention, and was carried out in accordance with the method by Jancso et al. [Acta. Physiol. Acad. Sci. Hung., 19, 113-131 (1961)] and the method by Szallasi et al. [Brit. J. Pharmacol., 119, 283-290 (1996)]. Specifically, the test compounds were dissolved in physiological saline containing 5% Tween 80 and 5% ethanol to give each (10 or 30 μg/ml) concentration, and one drop of the obtained solution was applied to the eye of a Std: ddy male mouse (5 mice per group, body weight 20 to 30 g) and the number of the protective wiping behavior with the front paws was counted every minute up to 5 minutes after the administration. Then, the average counts in each minute was calculated and the maximum number was defined as the representative value. Further, as vehicle control, the same test was carried out using physiological saline containing 5% Tween 80 and 5% ethanol.

[4] = test system: micronucleus-containing immature erythrocyte; assay: Bone marrow micronucleus test; format: in vivo, rat; settings: subcutaneous, twice every 24 hours, Crl: CD male rats; dosage at which fatal cases start occurring and dosages up thereto
Experimental: Each compound of Examples 2, 16 and 37 dissolved in physiological saline containing ethanol and Tween 80 was subcutaneously administered to Crl: CD male rats twice every 24 hours and micronucleus inducing potential was evaluated.

[5] = read-out: Value (%) when fluorescence intensity for capsaicin (1 μM) is 100%, 1 μM

T1 sequence (O35433 whole entry): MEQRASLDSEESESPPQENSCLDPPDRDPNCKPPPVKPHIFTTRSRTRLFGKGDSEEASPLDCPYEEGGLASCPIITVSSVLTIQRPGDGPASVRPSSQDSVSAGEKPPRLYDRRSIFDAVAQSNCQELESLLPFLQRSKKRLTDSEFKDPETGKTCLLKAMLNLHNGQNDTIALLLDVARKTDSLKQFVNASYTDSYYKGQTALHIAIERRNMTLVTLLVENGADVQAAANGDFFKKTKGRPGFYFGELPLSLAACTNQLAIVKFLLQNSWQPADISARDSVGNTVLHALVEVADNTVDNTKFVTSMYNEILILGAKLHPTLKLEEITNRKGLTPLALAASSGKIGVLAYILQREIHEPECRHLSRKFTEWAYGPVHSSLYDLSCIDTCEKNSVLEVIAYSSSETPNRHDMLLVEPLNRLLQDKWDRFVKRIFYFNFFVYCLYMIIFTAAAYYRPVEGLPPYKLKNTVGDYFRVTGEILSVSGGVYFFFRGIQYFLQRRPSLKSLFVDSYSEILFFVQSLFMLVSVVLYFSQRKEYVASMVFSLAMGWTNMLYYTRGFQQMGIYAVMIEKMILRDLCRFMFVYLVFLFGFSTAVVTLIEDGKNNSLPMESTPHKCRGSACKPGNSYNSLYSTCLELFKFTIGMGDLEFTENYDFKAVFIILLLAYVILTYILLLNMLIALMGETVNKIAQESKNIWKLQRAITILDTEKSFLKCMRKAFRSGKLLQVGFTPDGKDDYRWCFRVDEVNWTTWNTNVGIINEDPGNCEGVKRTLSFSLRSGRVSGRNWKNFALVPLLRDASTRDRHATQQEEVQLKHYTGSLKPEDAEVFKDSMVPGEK

## COc1cc(CNC(=O)C2CCN(C(=O)OC3CCC(C)(C)CC3)CC2)ccc1O [Example 8]
[1]
  % to pre-administration value (withdrawal threshold): 191%
TRPV1; 1 μM, read-out: Value (%) when fluorescence intensity for capsaicin (1 μM) is 100%
  Emax at 1 µM: 96%
[2]
  % to pre-administration value: (1) Test compound post-i. pl. administration value: 197%
[2]; measured an hour later
  % to pre-administration value: (2) Pregabalin post-oral administration value (Test compound administered on the day before): 244%
other
  melting point: 111 °C

## COc1cc(CNC(=O)CCCC/C=C/C(C)C)ccc1O [Capsaicin, (E)-8-methyl-N-vanillyl-6-nonenamide, reference compound]
[1]
  % to pre-administration value (withdrawal threshold): 228%
[3]
  Representative value of the counts of protective wiping behavior (Maximum counts, counts/min): 20.0 counts/min
[3]; listed as capsaicin
  Representative value of the counts of protective wiping behavior (Maximum counts, counts/min): vigorous wiping behavior was observed
TRPV1; 1 μM
  Value (%) when fluorescence intensity for capsaicin (1 μM) is 100%: 100%

## COc1cc(CNC(=O)C2CCN(C(=O)O[C@@H]3CCCC[C@@H]3C)CC2)ccc1O [Example 37, (1R,2S)-2-methylcyclohexyl 4-(4-hydroxy-3-methoxybenzylcarbamoyl)-piperidine-1-carboxylate]
[1]
  % to pre-administration value (withdrawal threshold): 236%
[4]
  micronucleus inducing potential: no micronucleus inducing potential
TRPV1; 1 μM
  Value (%) when fluorescence intensity for capsaicin (1 μM) is 100%: 101%
[2]
  % to pre-administration value: (1) Test compound post-i. pl. administration value: 169%
[2]; measured an hour later
  % to pre-administration value: (2) Pregabalin post-oral administration value (Test compound administered on the day before): 219%

## CC[C@H]1CC[C@H](OC(=O)N2CCC(C(=O)NCc3ccc(O)c(OC)c3)CC2)CC1 [Example 2]
[4]
  micronucleus inducing potential: no micronucleus inducing potential
TRPV1; [5]
  Emax at 1 µM: 84%

## CC(C)C[C@H](CN)CC(=O)O [Pregabalin, reference compound]
[2]; vehicle i.pl. the day before, Pregabalin 10 mg/kg orally, measured an hour later, Pregabalin alone
  % to pre-administration value: (2) Pregabalin post-oral administration value (vehicle control administered on the day before): 125%

## COc1cc(CNC(=O)C2CCN(C(=O)O[C@H]3CCC[C@H](C)C3)CC2)ccc1O [Example 36, (1S,3S)-3-methylcyclohexyl 4-(4-hydroxy-3-methoxybenzylcarbamoyl)-piperidine-1-carboxylate]
[1]
  % to pre-administration value (withdrawal threshold): 209%
TRPV1; 1 μM
  Value (%) when fluorescence intensity for capsaicin (1 μM) is 100%: 104%

## COc1cc(CNC(=O)C2CN(C(=O)O[C@H]3CC[C@@H](C(C)(C)C)CC3)C2)ccc1O [Example 16]
[1]
  % to pre-administration value (withdrawal threshold): 218%
[4]
  micronucleus inducing potential: no micronucleus inducing potential
TRPV1; [5]
  Emax at 1 µM: 84%
[2]
  % to pre-administration value: (1) Test compound post-i. pl. administration value: 200%
[2]; measured an hour later
  % to pre-administration value: (2) Pregabalin post-oral administration value (Test compound administered on the day before): 223%
